# Patent US5047502A, “Gastrin releasing peptide antagonist” (Merck and Co., Inc., priority 1989, dated 1991)
# Like-named read-outs stand apart in the source and are kept apart here. Residues, ends and D or L forms follow the SMILES beside them. No end group written: not given here. *: point of attachment. OBn = c1ccc(CO*)cc1; X1 = CCCCCO*; OPr = CCCO*; X2 = CCCCO*
# How the values were obtained:
# [1] = target: T1, GRP receptor (Mus musculus, UniProt P21729); experiment: Binding inhibition of radiolabelled GRP (Procedure A); conditions: for EC50: [Antagonist] reducing specific binding of 7 nM [3H-Phe15] GRP 15-27 to 50%, Swiss 3T3 cell monolayers
# T1 construct: Swiss 3T3 fibroblasts were used in these tests as the source of GRP receptor; endogenous in cells; host or cells: Swiss 3T3 fibroblasts (from Dr. K. Brown, Institute of Animal Physiology, Cambridge, U.K.)
# Protocol: Swiss 3T3 cells, obtained from Dr. K. Brown (Institute of Animal Physiology, Cambridge, U.K.). The cells were grown to confluency in Costar 12-well plates containing DMEM (Gibco) supplemented with 10% fetal bovine serum, 2 mM glutamine and 1% penicillin-streptomycin. The cells were washed twice with binding buffer [1:1 DMEM:Waymouths MB752/1 medium, plus 1 mg/ml BSA (Fraction V, Calbiochem)]. The antagonist was dissolved in 10 mM HCl, and diluted to the appropriate concentration in binding buffer. The antagonist was then added to the cells, followed by radiolabelled GRP at a final concentration of 7 nM. After 30 minutes incubation at 37° C., the supernatant liquid was removed and the cell monolayer rinsed four times with washing buffer (150 mM NaCl, 20 mM Na2 HPO4, 5 mM KCl, 1.8 mM KH2 PO4, 1 mg/ml BSA). The cells were then lysed with 1 ml/well of lysis buffer (1% Triton X-100, 0.1% BSA), and the solution was aspirated into scintillation vials for counting. Each data point was collected in triplicate.
# Binding Inhibition: [Antagonist] which reduces the specific binding of 7 nM [^3 H-Phe^15 ] GRP 15-27 to 50% of the level observed in the absence of antagonist. Assay performed in Swiss 3T3 cell monolayers.
# [2] = system: Swiss 3T3 cells; format: cell-based; conditions: for EC50: 3 h
# Protocol: Swiss 3T3 cells were grown in monolayer culture in 24-well plates (Costar) in serum-free DMEM for 48 hours, at which time the peptide being tested and 23 nM ^3 H-thymidine were added. […] The cells were harvested with a Skatron filter apparatus, and the filters counted in a scintillation counter. Mitogenic Stimulation: [Agonist] which stimulates uptake of ^3 H-thymidine to 50% of the maximal level caused by [Nle^27 ] GRP 15-27. Assay performed on Swiss 3T3 monolayers.
# [3] = system: Swiss 3T3 cells; format: cell-based; conditions: for EC50: 3 h; remark: listed apart in the source
# Protocol: Swiss 3T3 cells were grown in monolayer culture in 24-well plates (Costar) in serum-free DMEM for 48 hours, at which time the GRP or a GRP homologue, the antagonist and 23 nM ^3 H-thymidine were added. […] The cells were harvested with a Skatron filter apparatus, and the filters counted in a scintillation counter.
# Mitogenic Inhibition: [Antagonist] which reduces the uptake of ^3 H-thymidine caused by 7 nM [Nle^27 ] GRP 15-27 to 50% of the level observed in the absence of antagonist. […] GRP 1-27 as the mitogen. Assay performed on Swiss 3T3 monolayers.
# [4] = system: H345 SCLC cells; experiment: Stimulation of Ca2+ release in SCLC (Procedure D); format: cell-based; conditions: 100 nM GRP, read-out: [Ca2+]i in SCLC IC50
# Protocol: Following the procedure of Heikkila et al., J. Biol. Chem. 262 16456 (1987), approximately 1×10^8 H345 SCLC cells, maintained in RPMI-1640 (Ro) medium supplemented with selenium, insulin, and transferrin, were harvested by settling and washing with Ro. They were then resuspended in 2 ml Ro, to which 1.2 nmol Fura-2/AM per 10^6 cells was added. After a 15 minute incubation at 37° C., the cells were diluted to 10 ml with Ro and incubated for 1 hour at 37° C. The cells were then centrifuged and resuspended in HEPES-saline (140 mM NaCl, 5 mM KCl, 5 mM glucose, 1 mM CaCl2, 1 mM MgCl2, 20 mM HEPES, pH 7.4) at a density of 2.5-5×10^6 cells/ml. The cells were kept on ice for up to 2 hours before being used. Ca^2+ measurements were performed at 37° C. in an Aminco SPF-500 fluorimeter. The excitation wavelength was 340 nm, the emission wavelength 510 nm. Two ml of cell suspension was periodically resuspended in a 3 ml plastic cuvette. They were equilibrated at 37° C. for at least 5 minutes before data was collected. After a stable baseline was established, a mixture of the compound of interest an 100 nM GRP was added, and data was collected for approximately 5 minutes. At that time, a challenge dose of GRP was added, and data was collected for an additional 5 minutes. […] Baseline fluorescence was measured after the subsequent addition of 40 μl 2M Tris (pH 9.5) and 64 μl 0.2M EGTA.
# [5] = assays of example 2 repeated, unit inferred
# T1 sequence (P21729 whole entry): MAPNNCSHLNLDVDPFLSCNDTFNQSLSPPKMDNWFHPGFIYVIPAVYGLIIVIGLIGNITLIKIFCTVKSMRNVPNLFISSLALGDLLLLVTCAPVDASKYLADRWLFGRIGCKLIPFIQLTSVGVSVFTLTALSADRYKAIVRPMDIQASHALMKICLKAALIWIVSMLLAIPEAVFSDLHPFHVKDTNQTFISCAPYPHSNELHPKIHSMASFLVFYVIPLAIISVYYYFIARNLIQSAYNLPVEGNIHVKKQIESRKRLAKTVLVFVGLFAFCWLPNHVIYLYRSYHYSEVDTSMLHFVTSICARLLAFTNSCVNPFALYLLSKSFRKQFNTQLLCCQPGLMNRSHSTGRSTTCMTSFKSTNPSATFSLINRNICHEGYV
compound,measurement,setting,value
CCCOC(=O)[C@H](CC(C)C)NC(=O)[C@H](Cc1c[nH]cn1)NC(=O)CNC(=O)[C@@H](NC(=O)[C@H](C)NC(=O)[C@H](Cc1c[nH]c2ccccc12)NC(=O)[C@H](Cc1c[nH]cn1)NC(C)=O)C(C)C [AcHisTrpAlaValGlyHisLeu--O(CH2)2 CH3] (Ac-HWAVGHL-OPr),IC50,[1]; [5],3.5 nM
CCCCOC(=O)[C@H](CC(C)C)NC(=O)[C@H](Cc1c[nH]cn1)NC(=O)CNC(=O)[C@@H](NC(=O)[C@H](C)NC(=O)[C@H](Cc1c[nH]c2ccccc12)NC(=O)[C@H](Cc1c[nH]cn1)NC(C)=O)C(C)C [AcHisTrpAlaValGlyHisLeu--O(CH2)3 CH3] (Ac-HWAVGHL-X2),IC50,[1]; [5],6.8 nM
CCCCCOC(=O)[C@H](CC(C)C)NC(=O)[C@H](Cc1c[nH]cn1)NC(=O)CNC(=O)[C@@H](NC(=O)[C@H](C)NC(=O)[C@H](Cc1c[nH]c2ccccc12)NC(=O)[C@H](Cc1c[nH]cn1)NC(C)=O)C(C)C [AcHisTrpAlaValGlyHisLeu--O(CH2)4 CH3] (Ac-HWAVGHL-X1),IC50,[1]; [5],12.4 nM
CC(=O)N[C@@H](Cc1c[nH]cn1)C(=O)N[C@@H](Cc1c[nH]c2ccccc12)C(=O)N[C@@H](C)C(=O)N[C@H](C(=O)NCC(=O)N[C@@H](Cc1c[nH]cn1)C(=O)N[C@@H](CC(C)C)C(=O)OCc1ccccc1)C(C)C [AcHisTrpAlaValGlyHisLeu--OCH2 C6 H5] (Ac-HWAVGHL-OBn),IC50,[1]; [5],5.4 nM
COC(=O)[C@H](CC(C)C)NC(=O)[C@H](Cc1c[nH]cn1)NC(=O)CNC(=O)[C@@H](NC(=O)[C@H](C)NC(=O)[C@H](Cc1c[nH]c2ccccc12)NC(=O)[C@H](Cc1c[nH]cn1)NC(C)=O)C(C)C [AcHisTrpAlaValGlyHisLeu--OCH3] (Ac-HWAVGHL-OMe),IC50,[1]; [5],7.7 nM
CCOC(=O)[C@H](CC(C)C)NC(=O)[C@H](Cc1c[nH]cn1)NC(=O)CNC(=O)[C@@H](NC(=O)[C@H](C)NC(=O)[C@H](Cc1c[nH]c2ccccc12)NC(=O)[C@H](Cc1c[nH]cn1)NC(C)=O)C(C)C [N-acetyl His Trp Ala Val Gly His Leu-OCH2 CH3] (Ac-HWAVGHL-OEt),IC50,[1]; average of 6 experiments,3.9 nM
same,Mitogenic Stimulation,[2]; at concentrations up to 30 μM,none
same,IC50,"[3]; average of 2 experiments, read-out: Mitogenic Inhibition IC50",15 nM
same,IC50,[4],400 nM
Ac-HWAVGHL-NH2 [Ac--His--Trp--Ala--Val--Gly--His--LeuNH2],EC50,[1],2000 nM
same,EC50,[2],> 100000 nM
same,EC50,[3],3000 nM
HWAVGHL-NH2 [His--Trp--Ala--Val--Gly--His--LeuNH2],EC50,[1],20000 nM
same,EC50,[2],> 100000 nM
same,EC50,[3],50000 nM
